Read-outs that look alike come from different tables or passages of the source.
Legend:
Ion channel [1] = assay: Secondary pharmacology panel, target #16
Method: (§3) An in vitro pharmacological profiling panel was specifically designed for the detection of potential high- risk clinical adverse drug reactions. […] For enzyme and kinase assays, the results were expressed as a percent inhibition of control-specific activity obtained in the presence of the test compound. The IC50 values (concentration causing a half-maximal inhibition of control-specific activity) and Hill coefficients (nH) were determined by nonlinear regression analysis of the inhibition/concentration–response curves using Hill equation curve fitting as described earlier[37].
(§4) For assessment of activity against these targets, compounds were tested in an 8-point
(§5) concentration response covering half-log units up to a top test concentration of 100 µM, and
(§6) an IC50 or Ki determined using either radio ligand binding assays or enzyme activity assays.

Ion channel [2] = assay: Secondary pharmacology panel, target #17
Method: as §3, §4, §5, §6

[3] = tested on: asexual blood stage of Pf; assay: Pf asexual blood stage potency (Pf IC50); format: cell-based, Plasmodium falciparum; conditions: for IC50: Plasmodium falciparum
Text: The TAPs series emerged from a high-throughput screen (HTS) of 500,000 compounds from the AstraZeneca corporate library against the asexual blood stage of Pf using a high-content image-based approach. The procedure for synthesis of compounds 1-6, 10, 11 using a scheme similar to Fig. 1 is provided in Supplementary Note 1. The initial hit provided multiple diversification points for a robust lead optimization campaign. […] Compounds with 2-pyridyl modification at the 2-amino position of pyrimidine core improved potency and solubility at the cost of potent activity against hERG and acetylcholine esterase (AChE; compounds 3-6; Table 1). […] The observed hERG and AChE selectivity improvement with 7 could be attributed to the polar nature of the pyrazole group and its role in reducing the pKa of the core pyrimidine ring. […] To assess the potential for cross-resistance, representative TAPs were screened against a panel of clinical isolates and in vitro-generated mutant strains displaying varying mechanisms of resistance to antimalarial agents currently in use and under development, respectively, (Supplementary Tables 1–3).

GPCR [4] = assay: Secondary pharmacology panel, target #13
Method: as §3, §4, §5, §6

GPCR [5] = assay: Secondary pharmacology panel, target #8
Method: as §3, §4, §5, §6

hERG = target: T1, hERG (Homo sapiens, UniProt Q12809); assay: electrophysiology-based hERG assay using IonWorks HT (CHO cells); format: cell-based
T1 construct: expressed in transfected cells; host or cells: CHO cells
Method: hERG IC50 was determined in an electrophysiology-based hERG assay using IonWorks HT (CHO cells) as described earlier.

[6] = target: T2, acetylcholine esterase (AChE) (Homo sapiens, UniProt P22303); assay: AChE enzyme activity assay (CEREP); format: biochemical
T2 construct: purchased CEREP, France (external assay service) 0363
Method: (§1) An in vitro pharmacological profiling panel was specifically designed for the detection of potential high- risk clinical adverse drug reactions. The panel comprised of 26 diverse targets (6 enzymes, 2 transporters, 9 G-protein-coupled receptors (GPCRs), 5 ion channels along with hERG, M2, alpha1A and AchE) and was conduced externally by CEREP, France […]. […] Detailed methodology for in vitro pharmacological profiling assays provided by CEREP can be found at http://www.cerep.fr, with specific reference to the AChE (cat. no. 0363), Muscarinic M1 receptor (cat. no. 0091) and Adrenergic α1A receptor (cat. no. 2338) assays. For enzyme and kinase assays, the results were expressed as a percent inhibition of control-specific activity obtained in the presence of the test compound. The IC50 values (concentration causing a half-maximal inhibition of control-specific activity) and Hill coefficients (nH) were determined by nonlinear regression analysis of the inhibition/concentration–response curves using Hill equation curve fitting as described earlier.

Muscarinic M2 receptor = target: T3, Muscarinic M2 receptor (Homo sapiens, UniProt P08172); assay: Muscarinic M2 receptor radioligand binding (CEREP)
T3 construct: purchased CEREP, France (external assay service)
T3 sequence (P08172 1-466): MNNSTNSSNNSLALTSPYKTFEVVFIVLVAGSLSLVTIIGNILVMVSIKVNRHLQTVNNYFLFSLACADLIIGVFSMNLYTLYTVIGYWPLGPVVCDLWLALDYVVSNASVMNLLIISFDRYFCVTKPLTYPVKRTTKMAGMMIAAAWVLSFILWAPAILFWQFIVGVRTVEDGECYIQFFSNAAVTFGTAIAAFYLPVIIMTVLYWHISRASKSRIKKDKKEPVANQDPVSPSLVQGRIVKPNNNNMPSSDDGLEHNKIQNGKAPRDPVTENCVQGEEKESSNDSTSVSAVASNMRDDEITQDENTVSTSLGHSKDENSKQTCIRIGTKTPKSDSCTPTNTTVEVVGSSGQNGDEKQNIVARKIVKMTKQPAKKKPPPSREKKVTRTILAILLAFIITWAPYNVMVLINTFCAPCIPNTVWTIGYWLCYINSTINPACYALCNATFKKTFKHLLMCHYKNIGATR
Method: as §1
(§2) For radioligand binding assays, the results are expressed as % inhibition of control-specific binding obtained in the presence of the test compounds. The IC50 values (concentration causing a half-maximal inhibition of control-specific binding) and Hill coefficients (nH) were determined by nonlinear regression analysis of the competition curves generated with mean replicate values using Hill equation curve fitting. The inhibition constants (Ki) were subsequently calculated by applying the Cheng Prusoff equation[38].

GPCR [7] = assay: Secondary pharmacology panel, target #9
Method: as §3, §4, §5, §6

GPCR [8] = assay: Secondary pharmacology panel, target #6
Method: as §3, §4, §5, §6

α1A adrenoceptor = target: T4, α1A adrenoceptor (Homo sapiens, UniProt P35348); assay: α1A adrenoceptor radioligand binding (CEREP)
T4 construct: purchased CEREP, France (external assay service) 2338
T4 sequence (P35348 1-466): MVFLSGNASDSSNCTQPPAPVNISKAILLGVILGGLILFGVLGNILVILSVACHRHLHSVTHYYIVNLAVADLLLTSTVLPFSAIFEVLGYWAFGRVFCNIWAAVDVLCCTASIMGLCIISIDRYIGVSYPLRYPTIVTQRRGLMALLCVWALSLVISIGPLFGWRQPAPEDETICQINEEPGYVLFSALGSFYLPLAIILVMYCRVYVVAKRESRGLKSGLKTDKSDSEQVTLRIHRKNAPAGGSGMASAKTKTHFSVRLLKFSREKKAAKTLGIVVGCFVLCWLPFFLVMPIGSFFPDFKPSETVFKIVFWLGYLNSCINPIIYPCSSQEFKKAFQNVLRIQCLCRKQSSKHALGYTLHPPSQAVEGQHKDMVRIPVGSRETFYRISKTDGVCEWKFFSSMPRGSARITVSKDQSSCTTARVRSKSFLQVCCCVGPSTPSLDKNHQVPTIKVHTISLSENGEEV
Method: as §1, §2

GPCR [9] = assay: Secondary pharmacology panel, target #12
Method: as §3, §4, §5, §6

[10] = Plasma protein binding, human; conditions: for fraction unbound: human, plasma
Enzyme = assay: Secondary pharmacology panel, target #25
Method: For enzyme and kinase assays, the results were expressed as a percent inhibition of control-specific activity obtained in the presence of the test compound. The IC50 values (concentration causing a half-maximal inhibition of control-specific activity) and Hill coefficients (nH) were determined by nonlinear regression analysis of the inhibition/concentration–response curves using Hill equation curve fitting as described earlier[37].
as §4, §5, §6

GPCR [11] = assay: Secondary pharmacology panel, target #10
Method: as §3, §4, §5, §6

[12] = Target #18, hERG, read-out: Binding Ki / Enzyme IC50
[13] = Binding Ki / Enzyme IC50, Target #3, AChE

T1 sequence (Q12809 whole entry): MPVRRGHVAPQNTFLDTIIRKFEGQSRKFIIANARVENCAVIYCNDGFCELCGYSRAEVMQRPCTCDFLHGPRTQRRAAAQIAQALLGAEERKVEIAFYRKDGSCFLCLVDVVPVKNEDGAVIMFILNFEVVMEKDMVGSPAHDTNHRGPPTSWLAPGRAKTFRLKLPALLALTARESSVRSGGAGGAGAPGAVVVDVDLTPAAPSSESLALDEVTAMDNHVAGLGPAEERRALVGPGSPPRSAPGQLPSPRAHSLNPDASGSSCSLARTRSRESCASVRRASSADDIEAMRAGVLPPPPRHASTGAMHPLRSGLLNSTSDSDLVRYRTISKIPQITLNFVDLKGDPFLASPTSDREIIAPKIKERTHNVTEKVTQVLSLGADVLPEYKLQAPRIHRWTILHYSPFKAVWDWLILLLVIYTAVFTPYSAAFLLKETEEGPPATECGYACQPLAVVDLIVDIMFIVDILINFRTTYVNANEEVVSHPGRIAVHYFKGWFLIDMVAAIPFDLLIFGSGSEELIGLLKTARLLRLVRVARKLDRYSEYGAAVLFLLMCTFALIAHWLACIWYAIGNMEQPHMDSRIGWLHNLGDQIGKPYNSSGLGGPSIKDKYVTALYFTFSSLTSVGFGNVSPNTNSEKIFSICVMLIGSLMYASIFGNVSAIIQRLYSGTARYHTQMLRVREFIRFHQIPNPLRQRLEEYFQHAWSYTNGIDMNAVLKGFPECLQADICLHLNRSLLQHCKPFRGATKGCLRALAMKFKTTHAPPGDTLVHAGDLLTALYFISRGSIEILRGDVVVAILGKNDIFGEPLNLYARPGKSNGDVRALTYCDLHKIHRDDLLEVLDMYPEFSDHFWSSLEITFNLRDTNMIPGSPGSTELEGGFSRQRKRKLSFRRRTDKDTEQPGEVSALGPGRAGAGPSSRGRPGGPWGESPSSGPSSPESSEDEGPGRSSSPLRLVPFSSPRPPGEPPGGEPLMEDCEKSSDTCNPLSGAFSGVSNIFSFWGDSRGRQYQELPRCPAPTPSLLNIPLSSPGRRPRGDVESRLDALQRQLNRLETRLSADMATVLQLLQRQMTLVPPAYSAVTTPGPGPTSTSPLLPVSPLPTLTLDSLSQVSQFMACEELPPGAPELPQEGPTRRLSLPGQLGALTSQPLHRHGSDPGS
T2 sequence (P22303 32-614): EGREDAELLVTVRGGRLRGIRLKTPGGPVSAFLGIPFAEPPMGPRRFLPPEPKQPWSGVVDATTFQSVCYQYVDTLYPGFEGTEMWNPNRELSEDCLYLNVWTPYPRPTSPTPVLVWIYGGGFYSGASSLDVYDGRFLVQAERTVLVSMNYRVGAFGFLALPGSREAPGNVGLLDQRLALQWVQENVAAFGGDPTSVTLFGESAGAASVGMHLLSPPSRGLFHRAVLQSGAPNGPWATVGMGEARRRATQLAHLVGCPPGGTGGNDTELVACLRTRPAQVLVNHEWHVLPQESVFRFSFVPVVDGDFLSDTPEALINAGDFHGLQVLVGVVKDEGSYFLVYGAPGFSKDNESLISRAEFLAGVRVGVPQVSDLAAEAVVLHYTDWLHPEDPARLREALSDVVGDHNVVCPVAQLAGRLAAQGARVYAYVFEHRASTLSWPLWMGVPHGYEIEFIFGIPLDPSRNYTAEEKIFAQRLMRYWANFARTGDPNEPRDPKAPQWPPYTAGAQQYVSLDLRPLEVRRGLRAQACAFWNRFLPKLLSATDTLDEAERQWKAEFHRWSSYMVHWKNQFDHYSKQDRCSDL

Cc1cc(Nc2ncc(N3CCN(C)CC3)c(N3CCCC3)n2)ccn1 [compound 2]
Binding Ki / Enzyme IC50 (Ion channel [1]): 33.2 µM
Binding Ki / Enzyme IC50 (Ion channel [2]): 59 µM
IC50 [3]: 0.6 µM
Binding Ki / Enzyme IC50 (GPCR [4]): 38.7 µM
Binding Ki / Enzyme IC50 (GPCR [5]): 4.735 µM
IC50 (hERG; [12]): 85.02 µM
IC50 (hERG; hERG IC50): 85 µM
Selectivity ratio for AChE (IC50 / blood Cmin at ED90 in the Pf/SCID model) [6]: < 1
IC50 [6, 13]: 0.179 µM
IC50 ([6]; read-out: AChE IC50): 0.16 µM
IC50 (Muscarinic M2 receptor): 1.6 µM
Ki (Muscarinic M2 receptor): 1.1 µM
Selectivity ratio for M2 (IC50 / blood Cmin at ED90 in the Pf/SCID model) (Muscarinic M2 receptor): < 1
Binding Ki / Enzyme IC50 (GPCR [7]): > 100 µM
Binding Ki / Enzyme IC50 (GPCR [8]): 2.695 µM
IC50 (α1A adrenoceptor): 3.1 µM
Ki (α1A adrenoceptor): 1.46 µM
Selectivity ratio for α1A (IC50 / blood Cmin at ED90 in the Pf/SCID model) (α1A adrenoceptor): < 1
Binding Ki / Enzyme IC50 (GPCR [9]): 30.45 µM
fraction unbound [10]: 0.402
Binding Ki / Enzyme IC50 (Enzyme): > 100 µM
Binding Ki / Enzyme IC50 (GPCR [11]): 8.42 µM

Cc1nc(Nc2ncc(N3CCN(C)[C@H](C)C3)c(Nc3cc(C)n(C)n3)n2)cc(C2CC2)c1F [compound 12, (R)-N2-(4-cyclopropyl-5-fluoro-6-methylpyridin-2-yl)-N4-(1,5-dimethyl-1H-pyrazol-3-yl)-5-(3,4-dimethylpiperazin-1-yl)pyrimidine-2,4-diamine]
Binding Ki / Enzyme IC50 (Ion channel [1]): > 100 µM
Binding Ki / Enzyme IC50 (Ion channel [2]): > 100 µM
IC50 [3]: 0.009 µM
improvement in Pf potency ([3]; compound 12 versus compound 2): > 60 fold
Binding Ki / Enzyme IC50 (GPCR [4]): 11.5 µM
Binding Ki / Enzyme IC50 (GPCR [5]): > 100 µM
IC50 (hERG; [12]): 35.9 µM
IC50 (hERG; hERG IC50): 33 µM
selectivity ratio (hERG; human, CHO cells that express hERG, relative to Pf potency, read-out: selectivity against hERG): > 1000
IC50 [6, 13]: 78 µM
IC50 ([6]; read-out: AChE IC50): > 75 µM
selectivity against AChE ([6]; relative to Pf potency): > 1,000 fold
IC50 (Muscarinic M2 receptor): 2 µM
Ki (Muscarinic M2 receptor): 1.05 µM
Binding Ki / Enzyme IC50 (GPCR [7]): 2.21 µM
Binding Ki / Enzyme IC50 (GPCR [8]): 7.82 µM
IC50 (α1A adrenoceptor): 1.2 µM
Ki (α1A adrenoceptor): 0.604 µM
Binding Ki / Enzyme IC50 (GPCR [9]): 10.9 µM
Plasma protein binding (% free) ([10]; Human): 2.5 % free
Protein binding (human free) ([10]; Human): 2.5%
reduction in free fraction ([10]; compound 12 versus compound 2): 10 fold
fraction unbound [10]: 0.025
Binding Ki / Enzyme IC50 (Enzyme): > 100 µM
Binding Ki / Enzyme IC50 (GPCR [11]): > 100 µM
